US9943506B2, “BCL6 inhibitors as anticancer agents” (Cornell University, priority 2013, dated 2018)
Read-outs that look alike come from different tables or passages of the source.

What was measured:
Assay type in all cases: cell-based
[1] = system: Ly3 DLBCL cells; test: Growth inhibition of DLBCL cells, Ly3; settings: Table 2; BCL-6 dependent; 48 hours
Method: (§1) 50,000 cells per well were treated for 48 hours with different concentrations of the compounds in 96 well plates, using DMSO as a control. Then, viability was determined with Cell Titer Blue™ (Promega) and growth inhibition was calculated as the percentage of viable cells with respect to cells treated with DMSO alone. GI50 values were determined by dose-response curves.
(§2) 293T cells were grown in Dulbecco's modified Eagles medium supplemented with 10% fetal bovine serum (FBS) (Gemini Bio-Products, Woodland, Calif.) and 1% penicillin-streptomycin. DLBCL cell lines OCI-Ly1, OCI-Ly1-B50, OCI-Ly7, OCI-Ly10 and OCI-Ly19 were grown in 80% Iscove's medium, 20% FBS and penicillin G/streptomycin. DLBCL cell lines Toledo, Farage, SU-DHL4, DOHH-2, SC-1, RCK8, TMD8, HBL-1, Ly3, Karpas 422 and SU-DHL6 were cultured in 90% RPMI medium, 10% FBS, 2 mM glutamine, 10 mM Hepes and penicillin G/streptomycin. All cell lines were cultured at 37° C. in a humidified atmosphere of 5% CO2.

[2] = system: Ly7 DLBCL cells; test: Growth inhibition of DLBCL cells, Ly7
Method: as §1, §2

[3] = system: Ly10 DLBCL cells; test: Growth inhibition of DLBCL cells, Ly10; settings: Table 2, BCL-6 dependent, 48 hours
Method: as §1, §2

[4] = system: SUDHL6 DLBCL cells; test: Growth inhibition of DLBCL cells, SUDHL6; settings: Homo sapiens, SU-DHL-6
Method: as §1, §2

[5] = system: Karpas 422 DLBCL cells; test: Growth inhibition of DLBCL cells, Karpas 422; settings: Homo sapiens, Table 2, BCL-6 independent, 48 hours, read-out: GI50 Karpas 422
Method: as §1, §2

[6] = system: Toledo DLBCL cells; test: Growth inhibition of DLBCL cells, Toledo; settings: Homo sapiens
Method: as §1, §2

[7] = system: Ly1B50 DLBCL cells; test: Growth inhibition of DLBCL cells, Ly1B50; settings: Table 2; BCL-6 independent; 48 hours
Method: as §1, §2

[8] = Table 2, BCL-6 dependent, 48 hours, read-out: GI50 SUDH6
[9] = 48 h, Table 2, BCL-6 independent
[10] = Table 2, BCL-6 dependent, 48 hours
[11] = Table 2, BCL-6 independent, 48 hours
[12] = Table 10, BCL6 dependent, read-out: GI50 SUDHL6

SMILES	GI50 [1]	GI50 ([2]; 48 h, Table 2, BCL-6 dependent)	GI50 [3]	GI50 [4, 8]	GI50 [5]	GI50 [6, 9]	GI50 [7]	GI50 [2, 10]	GI50 [6, 11]	GI50 ([2]; Table 10, BCL6 dependent)	GI50 [4, 12]	GI50 ([6]; Table 10, BCL6 independent)	GI50 ([2]; Table 13, BCL6 dependent)	GI50 ([4]; Table 13, BCL6 dependent, read-out: GI50 SUDHL6)	GI50 ([6]; Table 13, BCL6 independent)
O=C(O)CCN1C(=O)/C(=C2/C(=O)Nc3ccccc32)SC1=S [Compound 2001, (Z)-3-(4-Oxo-5-(2-oxoindolin-3-ylidene)-2-thioxothiazolidin-3-yl)propanoic acid]	> 40 µM	> 40 µM	> 40 µM	> 40 µM	> 40 µM	> 40 µM	> 40 µM	–	–	–	–	–	–	–	–
O=C(O)CCN1C(=O)C(C2(O)C(=O)Nc3ccc(F)cc32)SC1=S (centres unmarked) [Compound 2021]	> 40 µM	–	> 40 µM	> 40 µM	> 40 µM	–	> 40 µM	> 40 µM	> 40 µM	–	–	–	–	–	–
O=C(O)CN1C(=O)/C(=C2/C(=O)Nc3c(Cl)cc(Cl)cc32)SC1=S [Compound 2039, (Z)-2-(5-(5,7-Dichloro-2-oxoindolin-3-ylidene)-4-oxo-2-thioxothiazolidin-3-yl)acetic acid]	> 40 µM	> 40 µM	> 40 µM	> 40 µM	> 40 µM	> 40 µM	> 40 µM	–	–	–	–	–	–	–	–
C[C@@H](OC(=O)Cn1c(=O)oc2cc(Cl)ccc21)c1ccccc1 [Compound 341]	–	–	–	–	–	–	–	–	–	> 125 µM	> 125 µM	> 125 µM	–	–	–
Cc1cc(Cl)cc2c1NC(=O)/C2=C1\SC(=S)N(CCC(=O)O)C1=O [Compound 1095, (Z)-3-(5-(5-Chloro-7-methyl-2-oxoindolin-3-ylidene)-4-oxo-2-thioxothiazolidin-3-yl)propanoic acid]	> 40 µM	> 40 µM	> 40 µM	> 40 µM	> 40 µM	> 40 µM	> 40 µM	–	–	–	–	–	–	–	–
O=C(O)CCN1C(=O)/C(=C2/C(=O)Nc3ccc([N+](=O)[O-])cc32)SC1=S [Compound 1169, (Z)-3-(5-(5-Nitro-2-oxoindolin-3-ylidene)-4-oxo-2-thioxothiazolidin-3-yl)propanoic acid]	29 ± 5 µM	28 ± 7 µM	20 ± 10 µM	30 ± 3 µM	27 ± 8 µM	> 40 µM	> 40 µM	–	–	–	–	–	–	–	–
COc1cc(Br)cc2c1NC(=O)/C2=C1\SC(=S)N(CCC(=O)O)C1=O [Compound 1113, (Z)-3-(5-(5-Bromo-7-methoxy-2-oxoindolin-3-ylidene)-4-oxo-2-thioxothiazolidin-3-yl)propanoic acid]	> 40 µM	12 ± 7 µM	> 40 µM	> 40 µM	> 40 µM	> 40 µM	> 40 µM	–	–	–	–	–	–	–	–
O=C(O)CCN1C(=O)/C(=C2/C(=O)Nc3c(F)cccc32)SC1=S [Compound 1117, (Z)-3-(5-(7-Fluoro-2-oxoindolin-3-ylidene)-4-oxo-2-thioxothiazolidin-3-yl)propanoic acid]	21 ± 4 µM	36 ± 1 µM	> 40 µM	25 ± 4 µM	> 40 µM	> 40 µM	> 40 µM	–	–	–	–	–	–	–	–
O=C(O)CCN1C(=O)/C(=C2/C(=O)Nc3ccc(I)cc32)SC1=S [Compound 2005, (Z)-3-(5-(5-Iodo-2-oxoindolin-3-ylidene)-4-oxo-2-thioxothiazolidin-3-yl)propanoic acid]	> 40 µM	> 40 µM	21 ± 2 µM	25 ± 6 µM	> 40 µM	> 40 µM	> 40 µM	–	–	–	–	–	–	–	–
O=C(O)CCN1C(=O)/C(=C2/C(=O)Nc3c(Cl)cc(Cl)cc32)SC1=S [Compound 1093, (Z)-3-(5-(5,7-Dichloro-2-oxoindolin-3-ylidene)-4-oxo-2-thioxothiazolidin-3-yl)propanoic acid]	> 40 µM	30 ± 9 µM	21 ± 12 µM	> 40 µM	> 40 µM	> 40 µM	> 40 µM	–	–	–	–	–	–	–	–
Cc1ccc2c(c1)/C(=C1/SC(=S)N(CCC(=O)O)C1=O)C(=O)N2 [Compound 1097, (Z)-3-(5-(5-Methyl-2-oxoindolin-3-ylidene)-4-oxo-2-thioxothiazolidin-3-yl)propanoic acid]	> 40 µM	> 40 µM	18 ± 8 µM	> 40 µM	> 40 µM	> 40 µM	> 40 µM	–	–	–	–	–	–	–	–
Cc1ccc(COC(=O)Cn2c(=O)oc3cc(Cl)ccc32)cc1 [Compound 333]	–	–	–	–	–	–	–	–	–	> 125 µM	> 125 µM	> 125 µM	–	–	–
O=C(O)CCN1C(=O)/C(=C2/C(=O)Nc3ccc(F)cc32)SC1=S [Compound 1115, (Z)-3-(5-(5-Fluoro-2-oxoindolin-3-ylidene)-4-oxo-2-thioxothiazolidin-3-yl)propanoic acid]	22 ± 9 µM	24 ± 6 µM	34 ± 3 µM	26 ± 7 µM	> 40 µM	> 40 µM	> 40 µM	–	–	–	–	–	–	–	–
O=C(O)CCN1C(=O)/C(=C2/C(=O)Nc3ccc(Br)cc32)SC1=S [Compound 1165, (Z)-3-(5-(5-Bromo-2-oxoindolin-3-ylidene)-4-oxo-2-thioxothiazolidin-3-yl)propanoic acid]	17 ± 6 µM	> 40 µM	25 ± 9 µM	> 40 µM	> 40 µM	> 40 µM	> 40 µM	–	–	–	–	–	–	–	–
Cc1cccc(COC(=O)Cn2c(=O)oc3cc(Cl)ccc32)c1 [Compound 334]	–	–	–	–	–	–	–	–	–	> 125 µM	> 125 µM	> 125 µM	–	–	–
COc1ccc2[nH]c(SCc3ccccc3)nc2c1 [Compound 1059]	–	–	–	–	–	–	–	–	–	–	–	–	> 125 µM	> 125 µM	> 125 µM
O=C(O)CCN1C(=O)SC(C2(O)C(=O)Nc3ccc(Cl)cc32)C1=O (centres unmarked) [Compound 2023]	> 40 µM	–	> 40 µM	21 ± 3 µM	> 40 µM	–	> 40 µM	21 ± 10 µM	> 40 µM	–	–	–	–	–	–
O=C(O)CCN1C(=O)SC(C2(O)C(=O)Nc3ccc(I)cc32)C1=O (centres unmarked) [Compound 2027]	14 ± 3 µM	–	6 ± 2 µM	7 ± 1 µM	> 40 µM	–	> 40 µM	8 ± 1 µM	> 40 µM	–	–	–	–	–	–
O=C(Cn1c(=O)oc2cc(Cl)ccc21)OCc1ccc(C(F)(F)F)cc1 [Compound 339]	–	–	–	–	–	–	–	–	–	> 125 µM	> 125 µM	> 125 µM	–	–	–
O=C(O)CN1C(=O)/C(=C2/C(=O)Nc3c(F)cccc32)SC1=S [Compound 2035, (Z)-2-(5-(7-Fluoro-2-oxoindolin-3-ylidene)-4-oxo-2-thioxothiazolidin-3-yl)acetic acid]	> 40 µM	> 40 µM	> 40 µM	> 40 µM	> 40 µM	> 40 µM	> 40 µM	–	–	–	–	–	–	–	–
O=C(O)CN1C(=O)/C(=C2/C(=O)Nc3ccc(F)cc32)SC1=S [Compound 2033, (Z)-2-(5-(5-Fluoro-2-oxoindolin-3-ylidene)-4-oxo-2-thioxothiazolidin-3-yl)acetic acid]	> 40 µM	> 40 µM	> 40 µM	> 40 µM	> 40 µM	> 40 µM	> 40 µM	–	–	–	–	–	–	–	–
O=C(O)CCN1C(=O)/C(=C2/C(=O)Nc3c(Cl)cccc32)SC1=S [Compound 1167, (Z)-3-(5-(7-Chloro-2-oxoindolin-3-ylidene)-4-oxo-2-thioxothiazolidin-3-yl)propanoic acid]	> 40 µM	22 ± 1 µM	24 ± 2 µM	29 ± 1 µM	> 40 µM	> 40 µM	> 40 µM	–	–	–	–	–	–	–	–
